Measured values from US20190100790A1, “DETERMINATION OF NOTCH PATHWAY ACTIVITY USING UNIQUE COMBINATION OF TARGET GENES” (KONINKLIJKE PHILIPS N.V., priority 2017, published 2019).

System: Notch cellular signaling pathway
Test: Notch pathway activity predicted by Bayesian network model from target gene expression, MOLT4 cell line (data set GSE6495)
Format: cell-based, human
Conditions: MOLT4 cells, 48 hours, 5 μM
Source text: Herein, an exemplary Bayesian network model as shown in FIG. 2 was used to model the transcriptional program of the Notch cellular signaling pathway in a simple manner. The model consists of three types of nodes: (a) a transcription factor (TF) element (with states “absent” and “present”) in a first layer 1; (b) target genes TG1, TG2, TGn (with states “down” and “up”) in a second layer 2, and; (c) measurement nodes linked to the expression levels of the target genes in a third layer 3. These can be microarray probesets PS1,1, PS1,2, PS1,3, PS2,1, PSn,1, PSn,m (with states “low” and “high”), as preferably used herein, but could also be other gene expression measurements such as RNAseq or RT-qPCR.
A suitable implementation of the mathematical model, herein, the exemplary Bayesian network model, is based on microarray data. The model describes (i) how the expression levels of the target genes depend on the activation of the TF element, and (ii) how probeset intensities, in turn, depend on the expression levels of the respective target genes. For the latter, probeset intensities may be taken from fRMA pre-processed Affymetrix HG-U133Plus2.0 microarrays, which are widely available from the Gene Expression Omnibus (GEO, www.ncbi.nlm.nih.gov/geo) and ArrayExpress (www.ebi.ac.uk/arrayexpress). […]

In the case of `C[C@H](NC(=O)Cc1cc(F)cc(F)c1)C(=O)N[C@H](C(=O)OC(C)(C)C)c1ccccc1` [DAPT], the “Notch cellular signaling pathway activity (odds that the TF element is present)” value (18 target genes shortlist model, vs untreated (FIG. 11)) is reported as “decrease in Notch activity” and the “Notch cellular signaling pathway activity (odds that the TF element is present)” value (26 target genes list model, vs untreated (FIG. 12)) is reported as “decrease in Notch activity”.
